The results in this text go back to US20070213301A1 (ACHILLION PHARMACEUTICALS, INC., priority 2006, published 2007).

The subject of the first assay is HCV replicon. Kind of assay: HCV replicon replication assay (NPTII ELISA). Format: cell-based, Hepatitis C virus (Huh-7 cells). To be noted: Hepatitis C virus, Huh-7, 72 h, inhibition of HCV replicon replication in Huh-7 HCV replicon-containing cells, three days incubation, NPT level by ELISA; read-out: EC50. The gist of the method: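 Huh-7 cells carrying a Bartenschlager NPTII (neo) HCV replicon, treated 3 days at 37 °C with compound, generally 6 concentrations from 10 to 0.03 micromolar, in equal DMSO across wells. NPTII level, proportional to replication, read by capture ELISA on methanol:acetone-fixed cells; interferon alpha positive control; toxicity scored visually or by MTS.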
Regarding `CCCCOc1ccc(N(C(N)=O)c2nc(-c3cccnc3)cs2)cc1C(F)(F)F` [Compound 136, 1-(4-butoxy-3-(trifluoromethyl)phenyl)-1-(4-(pyridin-3-yl)thiazol-2-yl)urea], the EC50 (as a rule, the concentration needed to bring the measured effect to its halfway point) is less than 1000 nM.
Still for that read-out and setting: the same measure for `CCCCOc1ccc(N(C(N)=O)c2nc(-c3ccncc3)cs2)cc1C(F)(F)F` [Compound 137, 1-(4-butoxy-3-(trifluoromethyl)phenyl)-1-(4-(pyridin-4-yl)thiazol-2-yl)urea]: less than 1000 nM; for `CCCCOc1ccc(N(C(N)=O)c2nc(-c3ccc(F)c(F)c3)cs2)cc1C(F)(F)F` [Compound 138, 1-(4-butoxy-3-(trifluoromethyl)phenyl)-1-(4-(3,4-difluorophenyl)thiazol-2-yl)urea]: less than 1000 nM.
Take `CCCCCN(C)c1ccc(N(C(N)=O)c2nc(-c3ccc(C)nc3)cs2)cc1C(F)(F)F` [Compound 139, 1-(4-(methyl(pentyl)amino)-3-(trifluoromethyl)phenyl)-1-(4-(6-methylpyridin-3-yl)thiazol-2-yl)urea]: the EC50 is less than 1000 nM.
Take `CCCCCN(C)c1ccc(N(C(N)=O)c2nc(-c3ccc(F)cc3)cs2)cc1C(F)(F)F` [Compound 140, 1-(4-(4-fluorophenyl)thiazol-2-yl)-1-(4-(methyl(pentyl)amino)-3-(trifluoromethyl)phenyl)urea]: the EC50 was less than 1000 nM.
Same read-out and setting: under `CCCCCOc1ccc(N(C(N)=O)c2nc(-c3ccncc3)cs2)cc1F` [Compound 141, 1-(3-fluoro-4-(pentyloxy)phenyl)-1-(4-(pyridin-4-yl)thiazol-2-yl)urea] stands greater than 10000 nM; under `NC(=O)N(c1ccc(OCC2CCCCC2)c(F)c1)c1nc(-c2ccncc2)cs1` [Compound 142, 1-(4-(cyclohexylmethoxy)-3-fluorophenyl)-1-(4-(pyridin-4-yl)thiazol-2-yl)urea], 1000 to 10000 nM.
Same read-out and setting: the same measure for `CCCCCCOc1ccc(N(C(N)=O)c2nc(-c3ccc(C)nc3)cs2)cc1` [Compound 143, 1-(4-(hexyloxy)phenyl)-1-(4-(6-methylpyridin-3-yl)thiazol-2-yl)urea]: 1000 to 10000 nM; for `CCCCCCOc1ccc(N(C(N)=O)c2nc(-c3ccc(O)c(C(N)=O)c3)cs2)cc1` [Compound 144, 5-(2-(1-(4-(hexyloxy)phenyl)ureido)thiazol-4-yl)-2-hydroxybenzamide]: 1000 to 10000 nM; for `CCCCCCOc1ccc(N(C(N)=O)c2nc(-c3cccnc3)cs2)cc1` [Compound 145, 1-(4-(hexyloxy)phenyl)-1-(4-(pyridin-3-yl)thiazol-2-yl)urea]: less than 1000 nM.
For the compound `CCCCCCOc1ccc(N(C(N)=O)c2nc(-c3ccncc3)cs2)cc1` [Compound 146, 1-(4-(hexyloxy)phenyl)-1-(4-(pyridin-4-yl)thiazol-2-yl)urea], the EC50 was in the range of 1000 to 10000 nM.
The same measure, in the same setting: the same measure for `Cc1ccc(-c2csc(N(C(N)=O)c3ccc(OCC(C)C)c(C(F)(F)F)c3)n2)cn1` [Compound 147, 1-(4-isobutoxy-3-(trifluoromethyl)phenyl)-1-(4-(6-methylpyridin-3-yl)thiazol-2-yl)urea]: less than 1000 nM.
Same read-out and setting: under `CC(C)COc1ccc(N(C(N)=O)c2nc(-c3ccc(O)c(C(N)=O)c3)cs2)cc1C(F)(F)F` [Compound 148, 2-hydroxy-5-(2-(1-(4-isobutoxy-3-(trifluoromethyl)phenyl)ureido)thiazol-4-yl)benzamide] stands less than 1000 nM.
As for `CC(C)COc1ccc(N(C(N)=O)c2nc(-c3ccc4c(c3)NC(=O)CO4)cs2)cc1C(F)(F)F` [Compound 149, 1-(4-isobutoxy-3-(trifluoromethyl)phenyl)-1-(4-(3-oxo-3,4-dihydro-2H-benzo[b][1,4]oxazin-6-yl)thiazol-2-yl)urea], the EC50 was less than 1000 nM.
The same measure, in the same setting: under `CC(C)COc1ccc(N(C(N)=O)c2nc(-c3ccccn3)cs2)cc1C(F)(F)F` [Compound 150, 1-(4-isobutoxy-3-(trifluoromethyl)phenyl)-1-(4-(pyridin-2-yl)thiazol-2-yl)urea] stands less than 1000 nM; under `CC(C)COc1ccc(N(C(N)=O)c2nc(-c3cccnc3)cs2)cc1C(F)(F)F` [Compound 151, 1-(4-isobutoxy-3-(trifluoromethyl)phenyl)-1-(4-(pyridin-3-yl)thiazol-2-yl)urea], less than 1000 nM; under `CCCCCOc1ccc(N(C(=O)C(N)=O)c2nc(-c3cccnc3)cs2)cc1C(F)(F)F` [Compound 153, N1-(4-(pentyloxy)-3-(trifluoromethyl)phenyl)-N1-(4-(pyridin-3-yl)thiazol-2-yl)oxalamide], less than 1000 nM.
For the compound `CCCCCCCC(F)(F)c1ccc(N(C(C)=O)c2nc(-c3cccnc3)cs2)cc1` [Compound 154, N-(4-(1,1-difluorooctyl)phenyl)-N-(4-(pyridin-3-yl)thiazol-2-yl)acetamide], the EC50 is less than 1000 nM.
The same measure, in the same setting: the same measure for `CCCCCCc1ccc(N(C(N)=O)c2nc(-c3cccnc3)c(F)s2)cc1C(F)(F)F` [Compound 155, 1-(5-fluoro-4-(pyridin-3-yl)thiazol-2-yl)-1-(4-hexyl-3-(trifluoromethyl)phenyl)urea]: less than 1000 nM; for `CCCCCOc1ccc(N(C(N)=O)c2nc(-c3cccnc3)c(F)s2)cc1C(F)(F)F` [Compound 156, 1-(5-fluoro-4-(pyridin-3-yl)thiazol-2-yl)-1-(4-(pentyloxy)-3-(trifluoromethyl)phenyl)urea]: less than 1000 nM.
Same read-out and setting: under `CCCCCCCCc1ccc(N(C(=O)[C@@H](N)C(C)C)c2nc(-c3ccc(O)nc3)cs2)cc1C(F)(F)F` [Compound 157, (S)-2-amino-N-(4-(6-hydroxypyridin-3-yl)thiazol-2-yl)-3-methyl-N-(4-octyl-3-(trifluoromethyl)phenyl)butanamide] stands 1000 to 10000 nM; under `CCCCCCCCOc1ccc(N(C(=O)COC(C)=O)c2nc(-c3cccnc3)cs2)cc1C(F)(F)F` [Compound 158, 2-((4-(octyloxy)-3-(trifluoromethyl)phenyl)(4-(pyridin-3-yl)thiazol-2-yl)amino)-2-oxoethyl acetate], less than 1000 nM; under `CCCCCCCCOc1ccc(N(C(=O)CO)c2nc(-c3cccnc3)cs2)cc1C(F)(F)F` [Compound 159, 2-hydroxy-N-(4-(octyloxy)-3-(trifluoromethyl)phenyl)-N-(4-(pyridin-3-yl)thiazol-2-yl)acetamide], less than 1000 nM.
On the same count and under the same terms, the same measure for `CCCCCCCCOc1ccc(N(C(=O)CN(C)C)c2nc(-c3cccnc3)cs2)cc1C(F)(F)F` [Compound 160, 2-(dimethylamino)-N-(4-(octyloxy)-3-(trifluoromethyl)phenyl)-N-(4-(pyridin-3-yl)thiazol-2-yl)acetamide]: less than 1000 nM.
For the compound `CCCCCCCCOc1ccc(N(C(=O)CCC(=O)O)c2nc(-c3cccnc3)cs2)cc1C(F)(F)F` [Compound 161, 4-((4-(octyloxy)-3-(trifluoromethyl)phenyl)(4-(pyridin-3-yl)thiazol-2-yl)amino)-4-oxobutanoic acid], the EC50 is less than 1000 nM.
Take `CCCCCCCCOc1ccc(N(C(=O)CCC(=O)O)c2nc(-c3cccnc3)c(F)s2)cc1C(F)(F)F` [Compound 163, 4-((5-fluoro-4-(pyridin-3-yl)thiazol-2-yl)(4-(octyloxy)-3-(trifluoromethyl)phenyl)amino)-4-oxobutanoic acid]: the EC50 was less than 1000 nM.
Same read-out and setting: under `CCCCCCCCOc1ccc(N(C(=O)CNC(=O)OC(C)(C)C)c2nc(-c3cccnc3)c(F)s2)cc1C(F)(F)F` [Compound 164, tert-butyl 2-((5-fluoro-4-(pyridin-3-yl)thiazol-2-yl)(4-(octyloxy)-3-(trifluoromethyl)phenyl)amino)-2-oxoethylcarbamate] stands less than 1000 nM; under `CCCCCCCCOc1ccc(N(C(=O)NCC(=O)O)c2nc(-c3cccnc3)cs2)cc1C(F)(F)F` [Compound 165, 2-(3-(4-(octyloxy)-3-(trifluoromethyl)phenyl)-3-(4-(pyridin-3-yl)thiazol-2-yl)ureido)acetic acid], less than 1000 nM; under `CCCCCCCCOc1ccc(N(C(=O)NCC(=O)O)c2nc(-c3cccnc3)c(F)s2)cc1C(F)(F)F` [Compound 166, 2-(3-(5-fluoro-4-(pyridin-3-yl)thiazol-2-yl)-3-(4-(octyloxy)-3-(trifluoromethyl)phenyl)ureido)acetic acid], less than 1000 nM.
`CCCCCCCCOc1ccc(N(C(=O)CN(C)C)c2nc(-c3cccnc3)c(F)s2)cc1C(F)(F)F` [Compound 167, 2-(dimethylamino)-N-(5-fluoro-4-(pyridin-3-yl)thiazol-2-yl)-N-(4-(octyloxy)-3-(trifluoromethyl)phenyl)acetamide]: the EC50 is less than 1000 nM.
Still for that read-out and setting: the same measure for `CCCCCCCCOc1ccc(N(C(=O)COC(C)=O)c2nc(-c3cccnc3)c(F)s2)cc1C(F)(F)F` [Compound 168, 2-((5-fluoro-4-(pyridin-3-yl)thiazol-2-yl)(4-(octyloxy)-3-(trifluoromethyl)phenyl)amino)-2-oxoethyl acetate]: less than 1000 nM; for `CCCCCCCCOc1ccc(N(C(=O)CO)c2nc(-c3cccnc3)c(F)s2)cc1C(F)(F)F` [Compound 169, N-(5-fluoro-4-(pyridin-3-yl)thiazol-2-yl)-2-hydroxy-N-(4-(octyloxy)-3-(trifluoromethyl)phenyl)acetamide]: less than 1000 nM.
The same measure, in the same setting: the same measure for `CCCCCCCCc1ccc(N(C(=O)CN(C)C)c2nc(-c3cccnc3)c(F)s2)cc1C(F)(F)F` [Compound 170, 2-(dimethylamino)-N-(5-fluoro-4-(pyridin-3-yl)thiazol-2-yl)-N-(4-octyl-3-(trifluoromethyl)phenyl)acetamide]: less than 1000 nM.

Still in this assay, the particulars now being: inhibition of HCV replicon replication in Huh-7 HCV replicon-containing cells, three days incubation, NPT level by ELISA.
On to `CC(C)COc1ccc(N(C(N)=O)c2nc(-c3cccnc3)cs2)cc1C(F)(F)F` [Compound 152, 1-(4-isobutoxy-3-(trifluoromethyl)phenyl)-1-(4-(pyridin-3-yl)thiazol-2-yl)urea], for which the EC50 was 1000 to 10000 nM.
